# Measured values as given in ChEMBL document CHEMBL1150206, “Verrucoside, a new cytotoxic pregnane glycoside from a gorgonian Eunicella verrucosa” (J Nat Prod, 1991).
# Assays:
# Assay type in all cases: functional, cell-based
# P388 = test: Cytotoxicity against mouse P388 cells
# HT-29 = test: Cytotoxicity against human HT-29 cells
# A549 = test: Cytotoxicity against human A549 cells
smiles,measurement,setting,value
C=C[C@H]1CC[C@H]2[C@@H]3CC[C@@H]4[C@@H](O[C@@H]5O[C@@H](C)[C@@H](O)[C@@H](OC)[C@@H]5OC(C)=O)[C@@H](O)CC[C@]4(C)[C@H]3CC[C@]12C [VERRUCOSIDE],IC50,P388,5.9 µg/mL
same,IC50,HT-29,6.3 µg/mL
same,IC50,A549,7.2 µg/mL
